Data on 24 molecules can be found in patent publication US10130615B2, “Benzomorphan analogs and the use thereof” (priority 2014, dated 2018).

Molecules are shown by their SMILES. Read-outs that look alike come from different tables or passages of the source.

For orientation: EC50 means the concentration at which the effect is half-maximal. As a reminder, the Emax is the maximal effect, on the per cent scale that the assay sets.

The target in test [1] is T1, μ-opioid receptor (Homo sapiens, UniProt P35372). Put plainly: biochemical. On the set-up: purchased Perkin Elmer, Shelton, Conn; host or cells: HEK-293 or CHO. The note with it: HEK-293 or CHO cells; for EC50: read-out: GTPγS μ EC50; for Emax: relative to DAMGO, read-out: GTPγS μ Emax.
The target in a further test is κ-opioid receptor (Homo sapiens, UniProt P41145). The test can be described thus: κ-opioid receptor GTPγS functional assay, U2OS cells. It counts as biochemical. Also on record: expressed in transfected cells; host or cells: U-2 OS. As to the method:
Plates were incubated for 30 min at a temperature of about 25° C. with shaking.

Test [2] deals with T1, μ-opioid receptor. Put plainly: μ-opioid receptor GTPγS functional assay, U2OS cells. The following applies: for Emax: read-out: GTPγS μ Emax.
The mark [3] stands for this setting: U2OS cells, read-out: GTPγS κ EC50.

κ-opioid receptor, sequence (P41145 whole entry): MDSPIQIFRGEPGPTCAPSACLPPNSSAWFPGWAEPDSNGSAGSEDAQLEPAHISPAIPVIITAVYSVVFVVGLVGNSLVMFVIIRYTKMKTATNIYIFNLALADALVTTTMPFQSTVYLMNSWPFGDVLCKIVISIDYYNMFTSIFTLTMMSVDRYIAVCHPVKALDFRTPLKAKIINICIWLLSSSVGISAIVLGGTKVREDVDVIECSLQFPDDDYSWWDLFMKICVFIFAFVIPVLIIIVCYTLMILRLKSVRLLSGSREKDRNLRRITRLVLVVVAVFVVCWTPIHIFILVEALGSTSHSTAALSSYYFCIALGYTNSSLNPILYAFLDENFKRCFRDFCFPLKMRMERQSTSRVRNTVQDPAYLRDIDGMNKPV
T1 sequence (P35372 whole entry, species assumed): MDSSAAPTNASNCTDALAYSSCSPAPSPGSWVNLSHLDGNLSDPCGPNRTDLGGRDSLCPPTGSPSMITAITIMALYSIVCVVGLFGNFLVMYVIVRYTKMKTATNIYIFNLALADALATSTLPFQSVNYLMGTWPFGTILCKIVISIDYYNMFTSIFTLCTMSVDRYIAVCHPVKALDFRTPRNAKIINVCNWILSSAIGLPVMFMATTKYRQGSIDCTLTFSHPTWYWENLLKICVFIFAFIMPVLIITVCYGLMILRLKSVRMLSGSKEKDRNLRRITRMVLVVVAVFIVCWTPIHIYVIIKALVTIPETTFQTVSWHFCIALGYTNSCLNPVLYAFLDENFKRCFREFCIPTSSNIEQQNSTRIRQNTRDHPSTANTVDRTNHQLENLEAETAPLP

Turning to `C[C@H]1[C@H]2Cc3ccc(O)cc3[C@]1(CCNC(=O)NCC(c1ccccc1)c1ccccc1)CCN2C` [Compound 77, 1-(2,2-diphenylethyl)-3-(2-((2R,6R,11R)-8-hydroxy-3,11-dimethyl-2,3,4,5-tetrahydro-2,6-methanobenzo[d]azocin-6(1H)-yl)ethyl)urea], at μ-opioid receptor [1], the EC50 turned out to be 0.00461 ± 0.00075 µM and the Emax was 57.1 ± 2.33%.

With `C[C@@H]1[C@@H]2Cc3ccc(O)cc3[C@@]1(CCN1CCN(C(c3ccc(F)cc3)c3ccc(F)cc3)CC1)CCN2C` [Compound 15, (2S,6S,11S)-6-(2-(4-(bis(4-fluoro-phenyl)methyl)piperazin-1-yl)ethyl)-3,11-dimethyl-1,2,3,4,5,6-hexahydro-2,6-methanobenzo[d]azocin-8-ol], at μ-opioid receptor [1], the 50% effective concentration (EC50) turned out to be 3.46 ± 0.314 µM and the Emax amounted to 97.7 ± 1.76%.

On to `C[C@H]1[C@H]2Cc3ccc(O)cc3[C@]1(CCNC(=O)NS(=O)(=O)c1ccc(F)cc1)CCN2CC1CC1` [Compound 19, N-((2-((2R,6R,11R)-3-(cyclopropyl-methyl)-8-hydroxy-11-methyl-2,3,4,5-tetrahydro-2,6-methanobenzo[d]azocin-6(1H)-yl)ethyl)carbamoyl)-4-fluoro-benzenesulfonamide], for which, at μ-opioid receptor [1], the EC50 came to 0.0173 ± 0.00699 µM and the Emax was found to be 10.1 ± 0.98%.

Consider `C[C@H]1[C@H]2Cc3ccc(O)cc3[C@]1(CCNC(=O)[C@@H]1CCCCN1)CCN2C` [Compound 70, (S)-N-(2-((2R,6R,11R)-8-hydroxy-3,11-dimethyl-2,3,4,5-tetrahydro-2,6-methano-benzo[d]azocin-6(1H)-yl)ethyl)-piperidine-2-carboxamide], for which, at μ-opioid receptor [1], the EC50 was 0.783 ± 0.208 µM and the Emax is 27.7 ± 0.88%.

Regarding `COc1ccc2c(c1)[C@@]1(CCNC3(C(=O)O)CC3)CCN(CC3CC3)[C@@H](C2)[C@H]1C` [Compound 35, 1-((2-((2S,6S,11S)-3-(cyclopropyl-methyl)-8-methoxy-11-methyl-2,3,4,5-tetrahydro-2,6-methanobenzo[d]azocin-6(1H)-yl)ethyl)amino)cyclopropane-1-carboxylic acid], on μ-opioid receptor [1], the EC50 is 17.5 ± 6.78 µM and the Emax was found to be 13 ± 1.53%.

On to `COc1ccc2c(c1)[C@@]1(CCOCc3ccccc3)CCN(C)[C@@H](C2)[C@H]1C` [Compound 47, (2S,6R,11S)-6-(2-(benzyloxy)ethyl)-8-methoxy-3,11-dimethyl-1,2,3,4,5,6-hexahydro-2,6-methanobenzo[d]azocine], for which the results for the Emax on κ-opioid receptor (U2OS cells) and at μ-opioid receptor [2] were 99.3 ± 0.67% and 72.3 ± 3.84%, respectively. Also, the EC50 stood at 3.75 ± 0.207 µM at κ-opioid receptor (setting [3]) and 8.99 ± 1.63 µM on μ-opioid receptor [2].

As to `COc1ccc2c(c1)[C@]1(CCNC(=O)[C@@H]3CCC(=O)N3)CCN(C)[C@H](C2)[C@@H]1C` [Compound 84, (S)-N-(2-((2R,6R,11R)-8-methoxy-3,11-dimethyl-2,3,4,5-tetrahydro-2,6-methano-benzo[d]azocin-6(1H)-yl)ethyl)-5-oxopyrrolidine-2-carboxamide], at μ-opioid receptor [1], the half-maximal effective concentration (EC50) turned out to be 12.4 ± 0.54 µM and the Emax is 32.4 ± 0.76%.

On to `C[C@H]1[C@H]2Cc3ccc(O)cc3[C@]1(CCNC(=O)[C@@H]1CCCC(=O)N1)CCN2CC1CC1` [Compound 82, (S)-N-(2-((2R,6R,11R)-3-(cyclopropyl-methyl)-8-hydroxy-11-methyl-2,3,4,5-tetrahydro-2,6-methanobenzo[d]azocin-6(1H)-yl)ethyl)-6-oxopiperidine-2-carboxamide], for which, on μ-opioid receptor [1], the EC50 was determined as 0.0196 ± 0.00939 µM and the Emax came to 8.9 ± 0.9%.

Turning to `COc1ccc2c(c1)[C@]1(CCNC(=O)NS(=O)(=O)c3ccc(F)cc3)CCN(C)[C@H](C2)[C@@H]1C` [Compound 67, 4-fluoro-N-((2-((2R,6R,11R)-8-methoxy-3,11-dimethyl-2,3,4,5-tetrahydro-2,6-methanobenzo[d]azocin-6(1H)-yl)ethyl)-carbamoyl)benzene-sulfonamide], on μ-opioid receptor [1], the EC50 came out at 2.45 ± 0.692 µM and the Emax is 26.3 ± 3.38%.

Turning to `C[C@H]1[C@H]2Cc3ccc(O)cc3[C@]1(CCN(C)C)CCN2C` [Compound 22, (2R,6R,11R)-6-(2-(dimethyl-amino)-ethyl)-3,11-dimethyl-1,2,3,4,5,6-hexahydro-2,6-methanobenzo[d]azocin-8-ol], at μ-opioid receptor [1], the EC50 amounted to 1.07 ± 0.143 µM and the Emax stood at 37.3 ± 1%.

Take `COc1ccc2c(c1)[C@]1(CCO)CCN(C)[C@H](C2)[C@@H]1C` [Compound 50, 2-((2R,6S,11R)-8-methoxy-3,11-dimethyl-2,3,4,5-tetrahydro-2,6-methano-benzo[d]azocin-6(1H)-yl)ethan-1-ol]: the concentration for a half-maximal effect (EC50) at κ-opioid receptor was greater than 2.32 µM; at μ-opioid receptor [2], 2.39 ± 0.271 µM. Besides, the Emax on κ-opioid receptor (U2OS cells) amounted to 103 ± 8.41%; at μ-opioid receptor [2], 88.3 ± 7.62%.

For `C[C@H]1[C@H]2Cc3ccc(O)cc3[C@]1(CCNC(=O)NC(c1ccccc1)c1ccccc1)CCN2C` [Compound 73, 1-Benzhydryl-3-(2-((2R,6R,11R)-8-hydroxy-3,11-dimethyl-2,3,4,5-tetrahydro-2,6-methanobenzo[d]azocin-6(1H)-yl)ethyl)urea], at μ-opioid receptor [1], the EC50 worked out at 0.00364 ± 0.00088 µM and the Emax was found to be 69.4 ± 1.22%.

On to `C[C@H]1[C@H]2Cc3ccc(O)cc3[C@]1(CCNCc1ccc(F)cc1)CCN2CC1CC1` [Compound 16, (2R,6R,11R)-3-(cyclopropylmethyl)-6-(2-((4-fluorobenzyl)amino)ethyl)-11-methyl-1,2,3,4,5,6-hexahydro-2,6-methanobenzo[d]azocin-8-ol], for which, at μ-opioid receptor [1], the EC50 turned out to be 0.00304 ± 0.00026 µM and the Emax worked out at 10.8 ± 1.25%.

Regarding `COC[C@@H]1CCCN1CC[C@]12CCN(C)[C@H](Cc3ccc(OC)cc31)[C@@H]2C` [Compound 56, (2R,6S,11R)-8-methoxy-6-(2-((S)-2-(methoxymethyl)pyrrolidin-1-yl)ethyl)-3,11-dimethyl-1,2,3,4,5,6-hexahydro-2,6-methanobenzo[d]azocine], the Emax on κ-opioid receptor (U2OS cells) was 94.7 ± 4.48%; at μ-opioid receptor [2] it was 72.3 ± 2.85%. The results for the EC50 on κ-opioid receptor (setting [3]) and on μ-opioid receptor [2] were 5.49 ± 0.434 µM and 5.99 ± 1.22 µM, respectively.

`COc1ccc2c(c1)[C@@]1(CCN[C@H](C(=O)O)C(C)C)CCN(CC3CC3)[C@@H](C2)[C@H]1C` [Compound 41, (2-((2S,6S,11S)-3-(cyclopropylmethyl)-8-methoxy-11-methyl-2,3,4,5-tetrahydro-2,6-methanobenzo[d]azocin-6(1H)-yl)ethyl)-L-valine]: the Emax on μ-opioid receptor [1] was determined as 0%.

With `C[C@H]1[C@H]2Cc3ccc(O)cc3[C@]1(CCNC(=O)NS(=O)(=O)c1ccccc1)CCN2C` [Compound 75, N-((2-((2R,6R,11R)-8-hydroxy-3,11-dimethyl-2,3,4,5-tetrahydro-2,6-methanobenzo[d]azocin-6(1H)-yl)-ethyl)carbamoyl)benzenesulfonamide], on μ-opioid receptor [1], the EC50 stood at 0.314 ± 0.0302 µM and the Emax was found to be 24.7 ± 0.17%.

`C[C@H]1[C@H]2Cc3ccc(O)cc3[C@]1(CCNC(=O)[C@@H]1CCCN1)CCN2C` [Compound 71, (S)-N-(2-((2R,6R,11R)-8-hydroxy-3,11-dimethyl-2,3,4,5-tetrahydro-2,6-methano-benzo[d]azocin-6(1H)-yl)ethyl)-pyrrolidine-2-carboxamide]: on μ-opioid receptor [1], the EC50 was 1.58 ± 0.177 µM and the Emax came to 36 ± 0.58%.

With `C[C@H]1[C@H]2Cc3ccc(O)cc3[C@]1(CCNC(=O)[C@@H]1CCC(=O)N1)CCN2CC1CC1` [Compound 81, (S)-N-(2-((2R,6R,11R)-3-(cyclopropyl-methyl)-8-hydroxy-11-methyl-2,3,4,5-tetrahydro-2,6-methanobenzo[d]azocin-6(1H)-yl)ethyl)-5-oxopyrrolidine-2-carboxamide], on μ-opioid receptor [1], the EC50 came to 0.0181 ± 0.00415 µM and the Emax stood at 10.8 ± 0.96%.

As to `C[C@H]1[C@H]2Cc3ccc(O)cc3[C@]1(CCN1CCCC1)CCN2C` [Compound 20, (2R,6R,11R)-3,11-dimethyl-6-(2-(pyrrolidin-1-yl)ethyl)-1,2,3,4,5,6-hexahydro-2,6-methanobenzo[d]azocin-8-ol], the Emax on μ-opioid receptor [1] came to 108 ± 10.1%.

For `C[C@H]1[C@H]2Cc3ccc(O)cc3[C@]1(CCNCc1ccco1)CCN2CC1CC1` [Compound 17, (2R,6R,11R)-3-(cyclopropylmethyl)-6-(2-((furan-2-ylmethyl)amino)ethyl)-11-methyl-1,2,3,4,5,6-hexahydro-2,6-methanobenzo[d]azocin-8-ol], the Emax on μ-opioid receptor [1] was -0.88 ± 0.94%.

As to `C[C@H]1[C@H]2Cc3ccc(O)cc3C1(CCNS(=O)(=O)N(C)C)CCN2CC1CC1` [Compound 9], on μ-opioid receptor [2], a half-maximal effect (EC50) was put at 0.00067 ± 1e-05 µM and the Emax is 27%.

In the case of `C[C@H]1[C@H]2Cc3ccc(O)cc3[C@]1(CCNC(=O)Nc1cccc(Oc3ccccc3)c1)CCN2C` [Compound 74, 1-(2-((2R,6R,11R)-8-hydroxy-3,11-dimethyl-2,3,4,5-tetrahydro-2,6-methanobenzo[d]azocin-6(1H)-yl)ethyl)-3-(3-phenoxyphenyl)urea], at μ-opioid receptor [1], the EC50 came out at 0.0184 ± 0.00209 µM and the Emax came to 52.1 ± 1.88%.

Take `C[C@@H]1[C@@H]2Cc3ccc(O)cc3[C@@]1(CCN1CCC(N(C3CC3)S(=O)(=O)c3ccccc3)CC1)CCN2C` [Compound 14, N-cyclopropyl-N-(1-(2-((2S,6S,11S)-8-hydroxy-3,11-dimethyl-2,3,4,5-tetrahydro-2,6-methanobenzo[d]azocin-6(1H)-yl)ethyl)piperidin-4-yl)-benzenesulfonamide]: at μ-opioid receptor [1], the EC50 came out at 11.9 ± 1.22 µM and the Emax was found to be 69 ± 0.58%.

As to `COc1ccc2c(c1)[C@@]1(CCNCC(=O)O)CCN(CC3CC3)[C@@H](C2)[C@H]1C` [Compound 39, (2-((2S,6S,11S)-3-(cyclopropylmethyl)-8-methoxy-11-methyl-2,3,4,5-tetrahydro-2,6-methanobenzo[d]azocin-6(1H)-yl)ethyl)glycine], the Emax at μ-opioid receptor [1] is 19.7 ± 3.18%.
